This is an account of results in patent US8143374B2, “Polypeptide derivatives of parathyroid hormone (PTH)” (The General Hospital Corporation, priority 2006, dated 2012).

Where no end group is shown, it is not given here.

One test has as its target T1, ROS 17/2.8 cells (Rattus norvegicus, UniProt P25961).
T1 construct: ROS 17/2.8 cells are rat osteosarcoma cells and express the endogenous PTHR; host or cells: ROS 17/2.8 cells
T1 sequence (P25961 27-591): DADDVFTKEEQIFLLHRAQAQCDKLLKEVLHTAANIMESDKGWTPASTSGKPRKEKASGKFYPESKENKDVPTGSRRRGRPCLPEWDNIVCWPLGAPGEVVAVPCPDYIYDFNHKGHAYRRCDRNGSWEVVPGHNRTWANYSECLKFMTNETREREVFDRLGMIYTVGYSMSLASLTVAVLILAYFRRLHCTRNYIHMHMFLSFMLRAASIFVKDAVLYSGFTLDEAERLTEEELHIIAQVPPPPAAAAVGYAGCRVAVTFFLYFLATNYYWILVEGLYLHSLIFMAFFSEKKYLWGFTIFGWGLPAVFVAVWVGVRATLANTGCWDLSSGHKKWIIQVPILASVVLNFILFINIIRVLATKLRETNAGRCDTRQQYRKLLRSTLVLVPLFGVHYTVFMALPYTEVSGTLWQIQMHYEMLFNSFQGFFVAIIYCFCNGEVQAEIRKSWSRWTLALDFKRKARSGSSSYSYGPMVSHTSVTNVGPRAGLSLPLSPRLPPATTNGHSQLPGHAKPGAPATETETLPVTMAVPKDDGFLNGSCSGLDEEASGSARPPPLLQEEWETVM
The conditions noted are these: position-20 substitutions in PTH(1-31)NH2; cited from earlier work.

The target of test [1] is T2, endogenous PTHR in ROS 17/2.8 cells (Rattus norvegicus, UniProt P25961).
T2 construct: ROS 17/2.8 cells are rat osteosarcoma cells and express the endogenous PTHR; endogenous in cells; host or cells: ROS 17/2.8 rat osteosarcoma cells
T2 sequence (P25961 27-591): T1 sequence (P25961 27-591)
In words: Competition binding in intact ROS 17/2.8 cells with 125I-PTH(1-34) tracer. The conditions noted are these: 125I-[Nle8,21,Tyr34]rPTH(1-34)NH2 tracer. As for the experimental part: Cell Culture—Cells were cultured at 37° C. in a humidified atmosphere containing 5% CO2 in Dulbecco's modified Eagle's medium (DMEM), supplemented with 10% fetal bovine serum (HyClone, Logan Utah), 100 units/ml penicillin G, and 100 ug/ml streptomycin penicillin G/streptomycin (Invitrogen Corp. Carlsbad, Calif.). For binding and cAMP studies performed with the intact PTHR, the HKRK-B7 and ROS 17/2.8 cell lines were used. HKRK-B7 cells are derived from the porcine kidney cell line LLC-PK1 and express, via stable DNA transfection, the wild-type human PTHR at an approximate surface density of 950,000 PTH-binding sites per cell. […]
Receptor binding—Binding to the wild-type human PTHR in intact HKRK-B7 cells and ROS 17/2.8 cells was assessed using ^125I-PTH(1-34) as a tracer radioligand, as described (Shimizu, M., (2001) Endocrinology 142:3068-3074). […] The binding mixture was then removed by aspiration, the cells were rinsed three times with binding buffer, lysed in 1 M NaOH, and the entire lysate was counted for gamma-irradiation in a gamma counter. Binding to PTHR-delNt in COS-7 cell membranes was assessed in 96-well, vacuum filtration plates (Multiscreen-Durapore HV, […] membranes, Millipore Corp., Millford, Mass.) using ^125I-[Aib^1,3,M]PTH(1-15)NH2 as a tracer radioligand, as described (Dean, T., (2006) Mol Endocrinol 20:931-942). […]

As for “SVSEIQLMHNLGKHLNSMEKVEWLRKKLQDV-NH2 [Arg^20→Lys]”, on ROS 17/2.8 cells, the “reduction of cAMP-stimulating potency” value is listed as “abolished activity altogether”.
As for “SVSEIQLMHNLGKHLNSMEEVEWLRKKLQDV [Arg^20→Glu]”, the IC50 in test [1] was 5.8 µM.

What is called IC50 is the concentration at which inhibition is half-maximal.
